Molecules are shown by their SMILES.

In one assay the target is T1, Syk kinase (Homo sapiens, UniProt P43405).
T1 construct: purchased Upstate, Lake Placid NY
Description: Syk kinase biochemical fluorescence polarization assay. To be noted: isolated Syk kinase, fluorescence polarization, 4 uM ATP. On the technique in general: In fluorescence polarisation assays a small probe gives low polarisation when free and higher when bound to something large.
Turning to `CNC(=O)COc1cccc(Nc2ncc(C(F)(F)F)c(Nc3cccc(O)c3)n2)c1` [Compound R926742], the IC50 amounted to 76 nM.

With `O=C(c1cc2cc(Nc3ncc(F)c(Nc4cccc(O)c4)n3)ccc2o1)N1CCNCC1` [Compound R926502], the IC50 turned out to be 217 nM.

The subject of a further assay is cultured human mast cells (CHMC). Description: CHMC high cell density IgE activation: histamine.
Details: not given
The class given is cell-based. As to the method:
(§1) After sensitizing, cells are counted, pelleted (1000 rpm, 5-10 minutes), and resuspended at 1-2 ×10^6 cells/ml in MT buffer. Add 100 ul of cell suspension to each well and 100 ul of compound dilutions. The final vehicle concentration is 0.5% DMSO. Incubate at 37° C. (5% CO2) for 1 hour. After 1 hour of compound treatment, stimulate cells with 6× anti-IgE. Mix wells with the cells and allow plates to incubate at 37° C. (5% CO2) for one hour. After 1 hour incubation, pellet cells (10 minutes, 1000 RPM) and collect 200 ul per well of the supernatant, being careful not to disturb pellet. Place the supernatant plate on ice. During the 7-hour step (see next) perform tryptase assay on supernatant that had been diluted 1:500. Resuspend cell pellet in 240 ul of CM media containing 0.5% DMSO and corresponding concentration of compound. Incubate CHMC cells for 7 hours at 37° C. (5% CO2). After incubation, pellet cells (1000 RPM, 10 minutes) and collect 225 ul per well and place in −80° C. until ready to perform ELISAS. ELISAS are performed on appropriately diluted samples (determined empirically for each donor cell population so that the sample measurement falls within the standard curve) following the supplier's instructions.
The compound `Cc1cc(Nc2nc(Nc3cccc(OCCN4CCNCC4)c3)ncc2F)cc(C)c1O` [Compound R945142] showed an IC50 above 10000 nM.

In turn, `O=C(c1cc2cc(Nc3ncc(F)c(Nc4cccc(O)c4)n3)ccc2o1)N1CCNCC1` [Compound R926502] returned an IC50 above 2000 nM.

System in a further assay: not listed separately
Description: Sheep model of allergic asthma. The class given is in vivo. To be noted: administered in an aqueous suspension. On the procedure:
In the sheep model of allergic asthma, sheep are administered aerosols of test article via an endotracheal tube, followed by an aerosol challenge with antigen extracted from the roundworm, Ascaris suum, to which the sheep are naturally allergic. Allergen challenge leads to direct bronchoconstriction (both EAR and LAR) and a persistent non-specific AHR. These three characteristics are similar to those seen in human allergic asthmatics. The activity of the test agent is determined by changes in the lung resistance (RL), which is calculated from measurements of transpulmonary pressure, flow, and respiratory volume. […] The LAR is a less pronounced increase in RL, which starts approximately 5-6 hours following allergen challenge and is resolved by 8 hours post-challenge. Twenty-four hours after the challenge, a dose response to carbachol is measured to determine the AHR, which is expressed as the dose of carbachol required to increase RL by 400% over baseline. (This measurement is referred to as the provocative concentration of carbachol that elicits a 400% increase in RL over baseline (PC400). The data are compared to historical control data for the same individual when administered a saline control aerosol and challenged with Ascaris suum.
`CNC(=O)COc1cccc(Nc2ncc(C(F)(F)F)c(Nc3cccc(O)c3)n2)c1` [Compound R926742]: the EAR entry is “failed to inhibit”.

Still in this assay, the particulars now being: dose, pretreatment and vehicle per compound as in TABLE 5.
Consider `CNC(=O)COc1cccc(Nc2ncc(C(F)(F)F)c(Nc3cccc(O)c3)n2)c1` [Compound R926742], for which the “LAR and AHR” value is listed as “blocked”.

The next assay deals with cultured human mast cells (CHMC). Description: CHMC high cell density IgE activation: TNFalpha. To be noted: read-out: CHMC high density TNF-alpha. It is filed as cell-based. On the procedure:
as §1
Regarding `Cc1cc(Nc2nc(Nc3cccc(OCCN4CCNCC4)c3)ncc2F)cc(C)c1O` [Compound R945142], the IC50 is above 2000 nM.

Another assay deals with basophil cells (human peripheral blood). The experiment in a line: Basophil ionomycin activation: histamine release assay. To be noted: basophils, ionomycin activation, histamine release; read-out: Basophils Ionomycin Histamine IC50. It is filed as cell-based. As to the method: The basophil activation assay was carried out using whole human peripheral blood from donors allergic to dust mites with the majority of the red blood cells removed by dextran sedimentation. Human peripheral blood was mixed 1:1 with 3% dextran T500 and RBCs were allowed to settle for 20-25min. The upper fraction was diluted with 3 volumes of D-PBS and cells were spun down for 10 min at 1500 rpm, RT. Supernatant was aspirated and cells were washed in an equal volume MT-buffer. Finally, cells were resuspended in MT-buffer containing 0.5% DMSO in the original blood volume. 80 uL cells were mixed with 20 uL compound in the presence of 0.5% DMSO, in triplicate, in a V-bottom 96-well tissue culture plate. A dose range of 8 compound concentrations was tested resulting in a 10-point dose response curve including maximum (stimulated) and minimum (unstimulated) response. […] The cells were stimulated for 30 minutes at 37° C., 5% CO2. The plate was spun for 10 min at 1500 rpm at room temperature and 80 uL the supernatant was harvested for histamine content analysis using the histamine ELISA kit supplied by Immunotech. The ELISA was performed according to supplier's instructions.
Assays for ionomycin-induced basophil cell degranulation were carried out as described for the Basophil IgE or Dustmite Activation Assay (Section 7.5.5, supra), with the exception that following incubation with compound, cells were stimulated with 20 μl of 2 μM ionomycin.
As for `CNC(=O)COc1cccc(Nc2ncc(C(F)(F)F)c(Nc3cccc(O)c3)n2)c1` [Compound R926742], the IC50 is above 10000 nM.

As for `O=C(c1cc2cc(Nc3ncc(F)c(Nc4cccc(O)c4)n3)ccc2o1)N1CCNCC1` [Compound R926502], the IC50 was above 10000 nM.

Another assay has as its system cultured human mast cells (CHMC). Description: CHMC high cell density IgE activation: tryptase. It is filed as cell-based.
Details: not given
As to the method: as §1
As for `Cc1cc(Nc2nc(Nc3cccc(OCCN4CCNCC4)c3)ncc2F)cc(C)c1O` [Compound R945142], the IC50 was above 2000 nM.

On to `O=C(c1cc2cc(Nc3ncc(F)c(Nc4cccc(O)c4)n3)ccc2o1)N1CCNCC1` [Compound R926502], for which the IC50 was above 2000 nM.

Another assay deals with IgE-induced degranulation of tissue mast cells. The experiment in a line: Mouse model of passive cutaneous anaphylaxis (PCA). It is filed as in vivo. To be noted: oral route in a PEG-based formulation (data not shown). As to the method:
This model provides a direct measure of IgE-induced degranulation of tissue mast cells. In this model, IgE primed animals are exposed to an allergen challenge, and the change in permeability of dermal vasculature that results from histamine release from mast cells is measured by change in the amount of dye leakage into surrounding tissue. Inhibition of mediator release by compounds that modulate mast cell degranulation is easily measured by extracting the dye from the tissue.
In the PCA assay mice are passively sensitized by intradermal injection with anti-dinitrophenol (DNP) IgE antibodies (Day −1). At predetermined times animals are treated with the test agent (Day 0). The modulatory effect of the agent on cutaneous mast cell degranulation is measured following intravenous injection of DNP conjugated to human serum albumin (HSA-DNP), together with Evans blue dye. The resulting cross-linking of the IgE receptor and subsequent mast cell degranulation-induced increase in vascular permeability is determined by measuring the amount of dye extravasation into the tissue. Dye is extracted from the tissue by formamide, and the absorbance of this extract is read at 620 nm.
For `CNC(=O)COc1cccc(Nc2ncc(C(F)(F)F)c(Nc3cccc(O)c3)n2)c1` [Compound R926742], the PCA response entry was “able to inhibit the PCA response”.

For a further assay, the system named is Human Jurkat T-cells (clone N). The experiment in a line: Jurkat T-cell activation (anti-TCR, CD69 upregulation). The class given is cell-based.
Details: not given
A digest of the protocol:
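Jurkat cells in RPMI + 5% FBS preincubated with compound 1 h at 37 °C, then stimulated with anti-TCR C305 at 500 ng/ml for 20 h. CD69 surface expression stained with anti-CD69-APC and read by flow cytometry; IC50 versus solvent-only control.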
Consider `Cc1cc(Nc2nc(Nc3cccc(OCCN4CCNCC4)c3)ncc2F)cc(C)c1O` [Compound R945142], for which the IC50 amounted to 1880 nM.

`O=C(c1cc2cc(Nc3ncc(F)c(Nc4cccc(O)c4)n3)ccc2o1)N1CCNCC1` [Compound R926502] returned an IC50 of 1630 nM.

In another assay the test system is cultured human mast cells (CHMC). The experiment in a line: CHMC high cell density IgE activation: hexos.
Details: not given
The class given is cell-based. On the procedure:
as §1
Add 50 uL of BMMC cell supernatant (see above) to the hexoseaminidase substrate, place at 37° C. for 30 minutes and read the plate at 5, 10, 15, and 30 minutes on a spectrophotometer.
In turn, `Cc1cc(Nc2nc(Nc3cccc(OCCN4CCNCC4)c3)ncc2F)cc(C)c1O` [Compound R945142] yielded an IC50 above 2000 nM.

In the case of `O=C(c1cc2cc(Nc3ncc(F)c(Nc4cccc(O)c4)n3)ccc2o1)N1CCNCC1` [Compound R926502], the IC50 was above 2000 nM.

The test system is the same in another assay. The experiment in a line: CHMC high cell density IgE activation: IL-13.
Details: not given
It is filed as cell-based. On the procedure:
as §1
The compound `Cc1cc(Nc2nc(Nc3cccc(OCCN4CCNCC4)c3)ncc2F)cc(C)c1O` [Compound R945142] returned an IC50 above 10000 nM.

In the case of `O=C(c1cc2cc(Nc3ncc(F)c(Nc4cccc(O)c4)n3)ccc2o1)N1CCNCC1` [Compound R926502], the IC50 is above 2000 nM.

The subject of the next assay is Primary T-cells. The experiment in a line: Primary T-cell cytokine production (αCD3/αCD28): IL-2. To be noted: read-out: 1° T-Cell IL2 IC50. It is filed as cell-based, human. As to the method:
2E8-4E8 PBMC or proliferating T cells grown in rIL-2 from healthy human donors were suspended in PBS were spun down (1500 rpm, 8-10 minutes) and resuspended in 100 ml RPMI Complete media (1% Pen-Strep, 1% L-Glutamine, 10 mM HEPES). The cells were plated in T175 flasks (37° C., 5% CO2) and monocytes were allowed to adhere for 2-3 hours. After monocyte attachment, non-adherent cells were harvested, counted by hemocytometer, washed several times with PBS then resuspended in Yssels Complete Media (Modified IMDM Media with 1% Human AB Serum, 1% Pen-Strep, 1% L-Glutamine, 10 mM HEPES) at […]. 90 uL of the cell dilution were then added to compounds diluted to 2× in Yssel's media and incubated for 30 minutes at 37° C. (5% CO2). After this preincubation step the compound/cell mixture was transferred to stimulation plates, as described below.
Stimulation plates were prepared by coating 96 well plates with 5 μg/ml αCD3 (BD PharMingen, Catalog #555336)+10 μg/ml αCD28 (Beckman Coulter, Catalog #IM1376) in PBS (no Ca^2+/Mg^2+) at 37° C. (5% CO2) for at 3-5 hours. After incubation with the stimulation antibodies, the cocktail was removed and the plates washed 3 times with PBS prior to addition of the primary T cell/compound mixture.
The compound/cell mixture was transferred to the stimulation plates and incubated for 18 hr at 37° C. (5% CO2). After the cell stimulation, ˜150 μl supernatant were transferred from each well into 96-well filter plates (Coming PVDF Filter Plates) spun down (2000 rpm, 2-3 minutes) and either used immediately for ELISA or LUMINEX measurements or frozen down at −80° C. for future use.
IL-2 ELISAs were performed using the Quantikine Human IL-2 ELISA kit (R&D Systems, Catalog # D2050) as described by the manufacturer and absorption was measured on a spectrophotometer at 450 nm wavelength. Blank values were substracted and absorbances were converted to pg/mL based on the standard curve.
Luminex immunoassay multiplexing for TNF, IL-2, GMSCF, IL-4 and IFNg was performed essentially as described by the manufacturer (Upstate Biotechnology). Essentially 50 uL of sample was diluted into 50 uL assay diluent and 50 uL incubation buffer, then incubated with 100 uL of the diluted detection antibody for 1 hr at RT in the dark. The filter plate was washed 2× in Wash Buffer, then incubated with 100 uL of the diluted secondary reagent (SAV-RPE) for 30 min at RT in the dark. Finally the plates were washed 3 times and bead identification and RPE fluorescent measured by the Luminex instrument.
Varied concentrations of compound were compared to solvent only to determine the inhibition of T-cell activation IC50 of each compound.
Regarding `CNC(=O)COc1cccc(Nc2ncc(C(F)(F)F)c(Nc3cccc(O)c3)n2)c1` [Compound R926742], the IC50 is 717 nM.

The next assay has as its system cultured human mast cells (CHMC). Description: CHMC low cell density ionomycin activation: tryptase assay. The class given is cell-based. To be noted: Low Density; read-out: CHMC Ionomycin Tryptase.
As to `Cc1cc(Nc2nc(Nc3cccc(OCCN4CCNCC4)c3)ncc2F)cc(C)c1O` [Compound R945142], the IC50 is above 10000 nM.
